The numbers were not newly measured in patent publication US11771690B2, “Solid particle, preparation method therefor, and pharmaceutical composition containing solid particle” (SHANGHAI WD PHARMACEUTICAL CO., LTD, priority 2018, dated 2023), which cites them from elsewhere.

On to `C[C@]12C=CC(=O)N[C@@H]1CC[C@@H]1[C@@H]2CC[C@]2(C)[C@@H](C(=O)Nc3cc(C(F)(F)F)ccc3C(F)(F)F)CC[C@@H]12` [Dutasteride, (5α,17β)-N-{2,5-bis(trifluoromethyl)phenyl}-3-oxo-4-azaandrost-1-ene-17-carboxamide], for which the solubility in water result is “insoluble”.
